Patent US6383745B1, “Methods of screening for anti-microbial utilizing aarC and compositions thereof” (priority 1997, dated 2002)

Experiments:
[1] = tested on: P. stuartii; settings: cited from earlier work; for resistance rates being reported: P. stuartii, first- and second-generation cephalosporins susceptible to its β-lactamases
[2] = tested on: P. stuartii PR500; assay: Level of aminoglycoside resistance of strain PR500; assay type: cell-based, Providencia stuartii; settings: PR500 (PR50 containing pR401 and pACYC184.aarG)
Procedure: Therefore, strain PR500, which is a derivative of the wild-type P. stuartii PR50 [Rather, P. et al., J. Bacteriol. 175:6492-6498 (1993)], was used. PR500 was generated by introducing into PR50 both pR401 (aac(2′)-lacZ) and pACYC184.aarG, a compatible pACYC184 derivative containing the aarG gene. PR500 forms white colonies on plates containing X-gal and has levels of aminoglycoside resistance to 4 μg/ml of gentamicin. Selection of mutants was achieved by plating approximately 10^8 cells of PR500 on LB plates containing 15 μg/ml of gentamicin and X-gal (to select and identify regulatory mutants), ampicillin (150 μg/ml) to maintain pR401 and chloramphenicol (100 μg/ml) to maintain pACYC184.aarG. As observed previously, colonies arose at a frequency of […] [Rather, P. et al., J. Bacteriol. 175:6492-6498 (1993)]. […] While not limiting the present invention to any particular mechanism, these colonies presumably resulted from mutations in a trans-acting regulator of aac(2′)-la since expression of both the chromosomal copy of aac(2′)-la and the plasmid encoded aac(2′)-lacZ fusion were increased. One class of mutants which formed small blue colonies was identified and a representative isolate, PR60, was characterized. Introduction by electroporation (Gene Pulser, Biorad) of the previously cloned aarA, aarB, and aarD genes [Macinga, D. R. et al., Mol. Microbiol. […]

CC(=O)OCC1=C(C(=O)O)N2C(=O)[C@@H](NC(=O)Cc3cccs3)[C@H]2SC1 [cephalothin]
resistance rates being reported [1]: 97%

CC1=C(C(=O)O)N2C(=O)[C@@H](NC(=O)[C@H](N)c3ccccc3)[C@H]2SC1 [cephalexin]
resistance rates being reported [1]: 100%

Cc1nnc(SCC2=C(C(=O)O)N3C(=O)[C@@H](NC(=O)Cn4cnnn4)[C@H]3SC2)s1 [cefazolin]
resistance rates being reported [1]: 94%

gentamicin
proportions of P. stuartii resistant ([1]; both in wards where the drug is widely used and in others (e.g., geriatric wards) where it was not used): 80-100% | levels of aminoglycoside resistance [2]: 4 µg/mL

O=C(Cc1cccs1)N[C@@H]1C(=O)N2C(C(=O)[O-])=C(C[n+]3ccccc3)CS[C@H]12 [cephaloridine]
resistance rates being reported [1]: 82%
